# Results from patent publication US9556217B2, “Amphiphilic compounds” (WISCONSIN ALUMNI RESEARCH FOUNDATION, priority 2012, dated 2017).
# What was measured:
# [1] = target: T1, melibiose permease (MelB) (Salmonella typhimurium, UniProt P30878); test: MelB solubilization and thermostability (SDS-PAGE, immunoblot); conditions: 1.5 wt %; for MelB extraction from membranes at 0° C.: 10 min or 90 min
# T1 construct: made in house; host or cells: E. coli DW2-R (ΔmelB, ΔlacZY), vector pK35ΔAHB/WT MelB/CH6
# Method: DDM (1.5 wt %) or GDN (1.5 wt %) was used to extract MelB from S. typhimurium membranes at 0° C. for 10 min or 90 min and then aggregated material was removed via ultracentrifugation. The amount of MelB in solution was determined by SDS-PAGE with immunoblot detection (FIG. 10).
# The effect of DDM and GDN on MelB thermostability was assessed by solubilizing the protein at the elevated temperatures for 90 min. […] Presumably MelB denatured and aggregated at the higher temperature in the presence of DDM. […] When MelB expressed in E. coli was used, similar results were obtained (FIG. 11).
# The protocol reported by Chae and coworkers (Nat. Methods 2010, 7, 1003-1008) was used to evaluate MelB stability with DDM and GDN.
# The reported protocol3 was used to evaluate MelB stability with DDM and GDN. Vector pK35ΔAHB/WT MelB/CH6 encoding the wild-type MelB with a 6-His tag at the C-terminus and E. coli DW2-R cells (ΔmelB and ΔlacZY) are used for the assay. Cells were harvested, resuspended in a buffer containing 20 mM Tris, pH 7.5, 200 mM NaCl and 10% glycerol. The harvested cells were subjected to French press and centrifugation at 20,000 g for 15 min. Subsequently, membranes were obtained via ultracentrifugation at 43,000 rpm for 3 hr in the Beckman rotor, Type 45 Ti rotor. A protein assay was carried out with a BCA kit (Thermo Scientific, Rockford, Ill.). For the measurement of solubilization efficiency, membrane samples containing MelB were incubated with a solubilization buffer (20 mM Tris, 200 mM NaCl, 10% glycerol, 20 mM melibiose, pH, 7.5) and 1.5 wt % DDM or GDN at 0° C. for 10 min. The final protein concentration was 10 mg/mL. For the MelB thermostability, the samples were incubated for 90 min at the four different temperatures (0, 45, 55, and 65° C.). After ultracentrifugation at 355,590 g in a Beckman Optima™ MAX Ultracentrifuge using a TLA-100 rotor for 45 min at 4° C., 10 μg protein before and after spin for each condition was analyzed by SDS-12% PAGE and immunoblotted with Penta-His-HRP antibody (Qiagen, Germantown, Md.).
# [2] = test system: leucine transporter (LeuT); test: LeuT functional assay ([3H]-Leu binding, SPA); type: biochemical, Aquifex aeolicus; conditions: CMC+0.04 wt % or CMC+0.2 wt %
# Method: The new amphiphiles were then evaluated for the ability to maintain the leucine transporter (LeuT) from Aquifex aeolicus in a functional state (Quick and Javitch, Proc. Natl. Acad. Sci. USA 2007, 104, 3603-3608). The transporter was initially extracted with DDM and then diluted with amphiphile-containing solutions to generate amphiphile concentration of CMC+0.04 wt % or CMC+0.2 wt %. At both concentrations, GDN was very effective at maintaining LeuT activity, as indicated by binding of radiolabeled leucine, with preservation of >95% of initial activity after 12 days (FIG. 5c).
# LeuT functionality was measured according to the procedure reported by Chae and coworkers (Nat. Methods 2010, 7, 1003-1008).
# LeuT activity was measured according to the reported procedure (Chae et al., J. Am. Chem. Soc. 2010, 132, 16750-16752). […] Following protein storage at RT, at the indicated time points, samples were centrifuged and the protein concentration was assessed by determining absorbance at 280 nm. Concomitantly, for the corresponding time points, [^3H]-Leu binding was measured using scintillation proximity assay (SPA). […] Binding was assessed in 200 mM NaCl in the presence of tested compounds at the above-mentioned concentrations, and monitored using MicroBeta liquid scintillation counter (PerkinElmer).
# [3] = target: T2, CMP-Sia fusion protein bearing green fluorescent protein (GFP) (Mus musculus, UniProt Q61420); test: CMP-Sia-GFP fusion solubilization (fluorescence); conditions: 1 hr at 4° C., total fluorescence
# T2 construct: made in house; host or cells: Saccharomyces cerevisiae FGY217
# Method: The favorable MelB extraction performance of GDN led to the examination of this amphiphile for extraction of other IMPs. […] DDM and GDN were used to extract a CMP-Sia fusion protein bearing green fluorescent protein (GFP) at the C-terminus, after expression in Saccharomyces cerevisiae; the amount of solubilized protein was estimated by total fluorescence. GDN (2 wt %), DDM (1 wt %) and OG (1 wt %) gave ˜70%, ˜80% and ˜50% extraction yields, respectively.
# The procedure was performed according to the protocol reported by Chae and coworkers (Nat. Methods 2010, 7, 1003-1008).
# CMP-Sia was expressed as a fusion protein with a C-terminal GFP in FGY217 Saccharomyces cerevisiae cells. Cell lysis was conducted by using a cell disrupter (Constant Systems) and the protein samples were subjected to centrifugation at 15,000 g for 10 mins to remove unbroken cells and debris. Subsequently, the membranes were harvested by ultracentrifugation at 150,000 g for 45 min. The membranes were resuspended in 50 mM Tris-HCl (pH 7.6), 1 mM EDTA, 0.6 M sorbitol and the protein concentration was estimated using a BCA kit (Pierce). The membranes were incubated with OG or DDM at 1.0%, or GDN at 2.0% for 1 hr at 4° C. A fluorescence value was measured for each sample before and after ultracentrifugation at 150,000 g for 1 h. The solubilization efficiency was calculated via the fluorescence measurements of the soluble supernatant/the total sample.
# T1 sequence (P30878 whole entry): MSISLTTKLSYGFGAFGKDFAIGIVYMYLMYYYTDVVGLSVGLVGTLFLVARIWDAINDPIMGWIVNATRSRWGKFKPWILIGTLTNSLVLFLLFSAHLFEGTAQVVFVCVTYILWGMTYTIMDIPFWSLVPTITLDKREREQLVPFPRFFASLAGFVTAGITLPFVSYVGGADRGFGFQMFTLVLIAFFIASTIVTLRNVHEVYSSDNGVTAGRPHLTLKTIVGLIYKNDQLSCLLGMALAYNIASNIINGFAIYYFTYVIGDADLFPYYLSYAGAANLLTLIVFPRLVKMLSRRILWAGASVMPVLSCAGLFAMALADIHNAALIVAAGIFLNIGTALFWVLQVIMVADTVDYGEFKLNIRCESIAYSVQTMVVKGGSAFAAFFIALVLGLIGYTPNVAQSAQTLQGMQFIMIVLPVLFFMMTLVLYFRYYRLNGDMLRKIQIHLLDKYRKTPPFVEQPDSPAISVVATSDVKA
Compound,MelB extraction from membranes at 0° C. [1],"Soluble MelB at 45° C. ([1]; 90 min, 45° C.)",Soluble MelB at 55° C. ([1]; 90 min),Maintaining LeuT activity over 12 days ([2]; RT),CMP-Sia-GFP extraction yield ([3]; 1 wt %) [%],"Soluble MelB at 65° C. ([1]; 90 min, 65° C.)","LeuT activity preserved, % of initial activity ([2]; after 12 days at RT) [%]",CMP-Sia-GFP extraction yield ([3]; 2 wt %) [%]
"CCCCCCCCCCCCO[C@@H]1O[C@H](CO)[C@@H](O[C@H]2O[C@H](CO)[C@@H](O)[C@H](O)[C@H]2O)[C@H](O)[C@H]1O [DDM, dodecyl-β-D-maltoside, reference compound]",quantitatively extract,high yield of soluble MelB,no soluble protein was obtained,lost significant activity,~80,–,–,–
"C[C@@H]1CC[C@@]2(OC1)O[C@H]1C[C@H]3[C@@H]4CC=C5C[C@@H](OCCC(CO[C@@H]6OC(CO)[C@@H](O[C@H]7OC(CO)[C@@H](O)C(O)C7O)C(O)C6O)CO[C@@H]6OC(CO)[C@@H](O[C@H]7OC(CO)[C@@H](O)C(O)C7O)C(O)C6O)CC[C@]5(C)[C@H]4CC[C@]3(C)[C@@H]1[C@@H]2C (stereo partly shown) [GDN, glyco-diosgenin]",not quite as efficient in extraction,–,large amounts of soluble protein,–,–,large amounts of soluble protein,> 95,~70
